Assay results: patent US20090239841A1, “Diaryl Ureas as CB1 Antagonists” (priority 2004, published 2009)

Target: T1, hCB1 (Homo sapiens, UniProt P21554)
T1 construct: made in house; host or cells: Sf9 insect cells (baculovirus), P2 membranes
Experiment: Agonist-induced GTP binding (GTPγ35S) assay at CB1, Example 8
Format: biochemical
Details: IC50 at CB1, determined as described in Example 8; read-out: IC50
In short: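 Antagonism read as inhibition of 1 nM CP55,940-stimulated GTPγ35S ([…]) binding, compounds at 10^−10 to 10^−5 M. Baculovirus-infected Sf9 membranes bearing hCB1 plus G-protein subunits, 60 min room-temperature incubation with 5 μM GDP. Filtration and scintillation counting; data as percent over basal.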

T1 sequence (P21554 whole entry): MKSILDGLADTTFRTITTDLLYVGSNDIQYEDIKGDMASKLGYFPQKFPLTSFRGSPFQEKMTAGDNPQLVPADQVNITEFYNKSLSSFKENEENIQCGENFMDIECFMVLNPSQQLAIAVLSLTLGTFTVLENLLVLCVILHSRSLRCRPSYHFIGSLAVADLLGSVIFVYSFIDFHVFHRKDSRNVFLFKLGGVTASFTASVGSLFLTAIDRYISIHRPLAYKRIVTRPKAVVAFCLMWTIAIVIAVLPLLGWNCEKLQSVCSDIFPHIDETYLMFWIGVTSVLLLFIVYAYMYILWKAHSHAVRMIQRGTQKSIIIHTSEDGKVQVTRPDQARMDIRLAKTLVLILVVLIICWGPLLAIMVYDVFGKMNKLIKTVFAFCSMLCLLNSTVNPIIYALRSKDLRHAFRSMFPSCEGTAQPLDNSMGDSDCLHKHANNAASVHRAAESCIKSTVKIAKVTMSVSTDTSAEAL

| Structure (SMILES) | IC50 [nM] |
| --- | --- |
| CC(C)Oc1cccc(NC(=O)Nc2cccc(Cl)c2)c1 [Compound 400, 1-(3-chlorophenyl)-3-(3-isopropoxyphenyl)urea] | < 2000 |
| CC(C)Oc1cccc(NC(=O)Nc2ccc(Cl)cc2)c1 [Compound 401, 1-(4-chlorophenyl)-3-(3-isopropoxyphenyl)urea] | < 2000 |
| CCc1cccc(NC(=O)Nc2ccc(OC(C)C)cc2)c1 [Compound 402, 1-(3-ethylphenyl)-3-(4-isopropoxyphenyl)urea] | < 2000 |
| CCc1ccc(NC(=O)Nc2ccc(OC(C)C)cc2)cc1 [Compound 403, 1-(4-ethylphenyl)-3-(4-isopropoxyphenyl)urea] | < 2000 |
| CC(C)Oc1ccc(NC(=O)Nc2cccc(Cl)c2)cc1 [Compound 404, 1-(3-chlorophenyl)-3-(4-isopropoxyphenyl)urea] | < 2000 |
| CC(C)Oc1ccc(NC(=O)Nc2ccc(Cl)cc2)cc1 [Compound 405, 1-(4-chlorophenyl)-3-(4-isopropoxyphenyl)urea] | < 2000 |
| CCc1cccc(NC(=O)Nc2cccc(OC(F)F)c2)c1 [Compound 406, 1-[3-(difluoromethoxy)phenyl]-3-(3-ethylphenyl)urea] | < 2000 |
| CCc1ccc(NC(=O)Nc2cccc(OC(F)F)c2)cc1 [Compound 407, 1-[3-(difluoromethoxy)phenyl]-3-(4-ethylphenyl)urea] | < 2000 |
| COc1cccc(NC(=O)Nc2ccc(C(C)=O)cc2)c1 [Compound 408, 1-(4-acetylphenyl)-3-(3-methoxyphenyl)urea] | < 2000 |
| COc1ccc(NC(=O)Nc2cccc(C#N)c2)cc1 [Compound 409, 1-(3-cyanophenyl)-3-(4-methoxyphenyl)urea] | < 2000 |
| COc1ccc(NC(=O)Nc2ccc(C(C)=O)cc2)cc1 [Compound 410, 1-(4-acetylphenyl)-3-(4-methoxyphenyl)urea] | < 2000 |
| CCOc1ccc(NC(=O)Nc2ccc(C#N)cc2)cc1 [Compound 411, 1-(4-cyanophenyl)-3-(4-ethoxyphenyl)urea] | < 2000 |
| CCOc1ccc(NC(=O)Nc2cccc(C(C)=O)c2)cc1 [Compound 412, 1-(3-acetylphenyl)-3-(4-ethoxyphenyl)urea] | < 2000 |
| CCOc1ccc(NC(=O)Nc2ccc(C(C)=O)cc2)cc1 [Compound 413, 1-(4-acetylphenyl)-3-(4-ethoxyphenyl)urea] | < 2000 |
| COCc1ccc(NC(=O)Nc2cccc(C(C)=O)c2)cc1 [Compound 414, 1-(3-acetylphenyl)-3-[4-(methoxymethyl)phenyl]urea] | < 2000 |
| COCc1ccc(NC(=O)Nc2ccc(C(C)=O)cc2)cc1 [Compound 415, 1-(4-acetylphenyl)-3-[4-(methoxymethyl)phenyl]urea] | < 2000 |
| CCCOc1ccc(NC(=O)Nc2cccc(C(C)=O)c2)cc1 [Compound 416, 1-(3-acetylphenyl)-3-(4-propoxyphenyl)urea] | < 2000 |
| CCCOc1ccc(NC(=O)Nc2ccc(C(C)=O)cc2)cc1 [Compound 417, 1-(4-acetylphenyl)-3-(4-propoxyphenyl)urea] | < 2000 |
| CC(C)Oc1cccc(NC(=O)Nc2cccc(C#N)c2)c1 [Compound 418, 1-(3-cyanophenyl)-3-(3-isopropoxyphenyl)urea] | < 2000 |
| CC(=O)c1cccc(NC(=O)Nc2cccc(OC(C)C)c2)c1 [Compound 419, 1-(3-acetylphenyl)-3-(3-isopropoxyphenyl)urea] | < 2000 |
| CC(=O)c1ccc(NC(=O)Nc2cccc(OC(C)C)c2)cc1 [Compound 420, 1-(4-acetylphenyl)-3-(3-isopropoxyphenyl)urea] | < 2000 |
| CC(C)Oc1ccc(NC(=O)Nc2ccc(C#N)cc2)cc1 [Compound 421, 1-(4-cyanophenyl)-3-(4-isopropoxyphenyl)urea] | < 2000 |
| CC(C)Oc1ccc(NC(=O)Nc2cccc(C#N)c2)cc1 [Compound 422, 1-(3-cyanophenyl)-3-(4-isopropoxyphenyl)urea] | < 2000 |
| CC(=O)c1cccc(NC(=O)Nc2ccc(OC(C)C)cc2)c1 [Compound 423, 1-(3-acetylphenyl)-3-(4-isopropoxyphenyl)urea] | < 2000 |
| CC(=O)c1ccc(NC(=O)Nc2ccc(OC(C)C)cc2)cc1 [Compound 424, 1-(4-acetylphenyl)-3-(4-isopropoxyphenyl)urea] | < 2000 |

Second part, the molecule after the results:

| IC50 [nM] | Structure (SMILES) |
| --- | --- |
| < 2000 | CC(=O)c1cccc(NC(=O)Nc2cccc(OC(F)F)c2)c1 [Compound 425, 1-(3-acetylphenyl)-3-[3-(difluoromethoxy)phenyl]urea] |
| < 2000 | CC(=O)c1ccc(NC(=O)Nc2cccc(OC(F)F)c2)cc1 [Compound 426, 1-(4-acetylphenyl)-3-[3-(difluoromethoxy)phenyl]urea] |
| < 2000 | CC(=O)c1ccc(NC(=O)Nc2ccc(OC(F)F)cc2)cc1 [Compound 427, 1-(4-acetylphenyl)-3-[4-(difluoromethoxy)phenyl]urea] |
| < 2000 | Cc1ccc(NC(=O)Nc2ccc(F)cc2)cc1C [Compound 428, 1-(3,4-dimethylphenyl)-3-(4-fluorophenyl)urea] |
| < 2000 | Cc1ccc(NC(=O)Nc2cccc(F)c2)cc1F [Compound 429, 1-(3-fluoro-4-methylphenyl)-3-(3-fluorophenyl)urea] |
| < 2000 | Cc1ccc(NC(=O)Nc2ccc(F)cc2)cc1F [Compound 430, 1-(3-fluoro-4-methylphenyl)-3-(4-fluorophenyl)urea] |
| < 2000 | O=C(Nc1cccc(F)c1)Nc1ccc2c(c1)CCC2 [Compound 431, 1-(2,3-dihydro-1H-inden-5-yl)-3-(3-fluorophenyl)urea] |
| < 2000 | O=C(Nc1ccc(F)cc1)Nc1ccc2c(c1)CCC2 [Compound 432, 1-(2,3-dihydro-1H-inden-5-yl)-3-(4-fluorophenyl)urea] |
| < 2000 | Cc1ccc(NC(=O)Nc2cccc(F)c2)cc1Cl [Compound 433, 1-(3-chloro-4-methylphenyl)-3-(3-fluorophenyl)urea] |
| < 2000 | Cc1ccc(NC(=O)Nc2ccc(F)cc2)cc1Cl [Compound 434, 1-(3-chloro-4-methylphenyl)-3-(4-fluorophenyl)urea] |
| < 2000 | Cc1ccc(NC(=O)Nc2ccccc2)cc1Cl [Compound 435, 1-(3-chloro-4-methylphenyl)-3-phenylurea] |
| < 2000 | CCc1ccc(NC(=O)Nc2ccc(C)c(C)c2)cc1 [Compound 436, 1-(3,4-dimethylphenyl)-3-(4-ethylphenyl)urea] |
| < 2000 | Cc1ccc(NC(=O)Nc2ccc(Cl)cc2)cc1C [Compound 437, 1-(4-chlorophenyl)-3-(3,4-dimethylphenyl)urea] |
| < 2000 | CCc1cccc(NC(=O)Nc2ccc(C)c(F)c2)c1 [Compound 438, 1-(3-ethylphenyl)-3-(3-fluoro-4-methylphenyl)urea] |
| < 2000 | CCc1ccc(NC(=O)Nc2ccc(C)c(F)c2)cc1 [Compound 439, 1-(4-ethylphenyl)-3-(3-fluoro-4-methylphenyl)urea] |
| < 2000 | CCc1ccc(NC(=O)Nc2ccc(F)c(C)c2)cc1 [Compound 440, 1-(4-ethylphenyl)-3-(4-fluoro-3-methylphenyl)urea] |

| IC50 [nM] | Structure (SMILES) |
| --- | --- |
| < 2000 | CCc1ccc(NC(=O)Nc2ccc(F)c(F)c2)cc1 [Compound 441, 1-(3,4-difluorophenyl)-3-(4-ethylphenyl)urea] |
| < 2000 | CCc1ccc(NC(=O)Nc2ccc3c(c2)CCC3)cc1 [Compound 442, 1-(2,3-dihydro-1H-inden-5-yl)-3-(4-ethylphenyl)urea] |
| < 2000 | O=C(Nc1ccc(Cl)cc1)Nc1ccc2c(c1)CCC2 [Compound 443, 1-(4-chlorophenyl)-3-(2,3-dihydro-1H-inden-5-yl)urea] |
| < 2000 | CCc1ccc(NC(=O)Nc2ccc(C)c(Cl)c2)cc1 [Compound 444, 1-(3-chloro-4-methylphenyl)-3-(4-ethylphenyl)urea] |
| < 2000 | Cc1ccc(NC(=O)Nc2ccc(Cl)cc2)cc1Cl [Compound 445, 1-(3-chloro-4-methylphenyl)-3-(4-chlorophenyl)urea] |
| < 2000 | CCc1ccc(NC(=O)Nc2ccc(Cl)c(C)c2)cc1 [Compound 446, 1-(4-chloro-3-methylphenyl)-3-(4-ethylphenyl)urea] |
| < 2000 | Cc1ccc(NC(=O)Nc2cccc(C#N)c2)cc1C [Compound 447, 1-(3-cyanophenyl)-3-(3,4-dimethylphenyl)urea] |
| < 2000 | Cc1ccc(NC(=O)Nc2cccc(C#N)c2)cc1F [Compound 448, 1-(3-cyanophenyl)-3-(3-fluoro-4-methylphenyl)urea] |
| < 2000 | CC(=O)c1cccc(NC(=O)Nc2ccc(C)c(F)c2)c1 [Compound 449, 1-(3-acetylphenyl)-3-(3-fluoro-4-methylphenyl)urea] |
| < 2000 | CC(=O)c1ccc(NC(=O)Nc2ccc(C)c(F)c2)cc1 [Compound 450, 1-(4-acetylphenyl)-3-(3-fluoro-4-methylphenyl)urea] |
| < 2000 | CC(=O)c1ccc(NC(=O)Nc2ccc(F)c(C)c2)cc1 [Compound 451, 1-(4-acetylphenyl)-3-(4-fluoro-3-methylphenyl)urea] |
| < 2000 | CC(=O)c1ccc(NC(=O)Nc2ccc(F)c(F)c2)cc1 [Compound 452, 1-(4-acetylphenyl)-3-(3,4-difluorophenyl)urea] |
| < 2000 | N#Cc1ccc(NC(=O)Nc2ccc3c(c2)CCC3)cc1 [Compound 453, 1-(4-cyanophenyl)-3-(2,3-dihydro-1H-inden-5-yl)urea] |
| < 2000 | N#Cc1cccc(NC(=O)Nc2ccc3c(c2)CCC3)c1 [Compound 454, 1-(3-cyanophenyl)-3-(2,3-dihydro-1H-inden-5-yl)urea] |
| < 2000 | CC(=O)c1cccc(NC(=O)Nc2ccc3c(c2)CCC3)c1 [Compound 455, 1-(3-acetylphenyl)-3-(2,3-dihydro-1H-inden-5-yl)urea] |
| < 2000 | CC(=O)c1ccc(NC(=O)Nc2ccc3c(c2)CCC3)cc1 [Compound 456, 1-(4-acetylphenyl)-3-(2,3-dihydro-1H-inden-5-yl)urea] |
